Laboratory results from patent US10925867B2, “Immunotherapeutic dosing regimens comprising pomalidomide and an anti-CS1 antibody for treating cancer” (Bristol-Myers Squibb Company, priority 2015, dated 2021).
Read-outs that look alike come from different tables or passages of the source.

Tests used:
OPM2 xenograft [1] = details: for Median Days to Target Size / LCK / CR (complete tumor regressions) / PR (partial tumor regressions) / TGI: Study #1; for Median Days to Target Size: ELO 0.5 mg/kg IP 2QW from d16, POM 5 mg/kg PO QD × 5 d16, 23, DEX 5 mg/kg IP QD × 7 from d16, target size 1 gm; for LCK / CR (complete tumor regressions) / PR (partial tumor regressions) / TGI: ELO 0.5, POM 5, DEX 5 mg/kg; for CR (complete tumor regressions) / PR (partial tumor regressions): mice of 8; for TGI: versus untreated mice; for Max % Weight Loss: mouse, in vivo
Protocol: Mice with established OPM2 xenograft tumors were randomized into 2 groups with 8 mice per group and were administered one of the following sets of regimens: (A) Control group was left untreated (filled circles), elotuzumab (0.5 mg/kg, twice weekly IP for 7 doses starting d16, open circles), dexamethasone (5 mg/kg, daily IP for 7 doses starting on d16, open triangles), elotuzumab plus dexamethasone combination (filled triangles), pomalidomide (5 mg/kg, daily for 5 days orally starting on d16 and then again for 5 days on d23) plus dexamethasone combination (dashes); or (B) Control group was left untreated (filled circles), elotuzumab (0.5 mg/kg, twice weekly IP for 7 doses starting d16, open circles), pomalidomide (5 mg/kg, daily for 5 days orally starting on d16 and then again for 5 days on d23, open squares), elotuzumab (0.5 mg/kg, twice weekly IP for 10 doses starting d16) plus pomalidomide combination (filled squares), elotuzumab (10 doses) plus pomalidomide plus dexamethasone combination (x's). The data are presented as means+/−standard deviation.
(§1) Mice with established OPM2 xenograft tumors were randomized into groups with 8 mice per group and were administered one of the following regimens: (A): untreated (control); (B): elotuzumab; (C): pomalidomide; (D): dexamethasone; (E): elotuzumab plus pomalidomide; (F): elotuzumab plus dexamethasone; (G): pomalidomide plus dexamethasone; or (H): elotuzumab plus pomalidomide plus dexamethasone. Data represent tumor weight measured in individual animals. Dosing route and regimen are described in FIG. 2 and Example 1.
(§2) Animals: All mice were obtained from Taconic Biosciences (Germantown, N.Y.), and maintained in ammonia-free environment in a defined and pathogen-free colony. All animal procedures were approved by the Bristol-Myers Squibb (BMS) Institutional Animal Care and Use Committee. The animal care and use program at BMS has been fully accredited by the Association for Assessment and Accreditation of Laboratory Animal Care International (AAALAC).
(§3) Animal Models: The human tumor xenograft OPM2 was grown in IcrTac scid mice (ICRPrkdcscid). Treated animals were checked daily for treatment related toxicity/mortality. Each group of animals was weighed before the initiation of treatment (Wt1) and then weighed again following the last treatment dose (Wt2). The difference in body weight (Wt2-Wt1) provides a measure of treatment-related toxicity. Additional weights were recorded at each measurement date to monitor toxicity.
(§4) Tumor response was determined by measurement of tumors with a caliper twice a week, until the tumors reached a predetermined “target” size of 1 gm. Tumor weights (mg) were estimated from the formula: Tumor weight=(length×width2)/2.
(§5) Tumor response end-point was expressed in terms of tumor cell kill and tumor growth inhibition. Tumor growth delay was defined as the difference in time (days) required for the treated tumors (T) to reach a predetermined target size compared to those in the control group (C). For this purpose tumor weight of a group was expressed as […] tumor weight (MTW).
(§6) Tumor cell kill was expressed in terms of log cell kill (LCK), represented by the equation LCK=[…] where tumor volume doubling time (TVDT) was first calculated with the formula: TVDT=Median time (days) for control tumor weight to reach target size−Median time (days) for control tumor weight to reach half the target size.

OPM2 xenograft [2] = details: for Median Days to Target Size / LCK / CR (complete tumor regressions) / PR (partial tumor regressions) / TGI: Study #2; for Median Days to Target Size: ELO 0.5 mg/kg IP 2QW from d12, POM 5 mg/kg PO QD × 5 d12, 19, DEX 5 mg/kg IP QD × 7 from d12, target size 1 gm; for LCK / CR (complete tumor regressions) / PR (partial tumor regressions) / TGI: ELO 0.5, POM 5, DEX 5 mg/kg; for CR (complete tumor regressions) / PR (partial tumor regressions): mice of 8; for TGI: versus untreated mice
Protocol: FIGS. 4A-B. Study #2 (OPM2-16), Antitumor Activity, Elotuzumab Efficacy in Combination with Pomalidomide and Dexamethasone in OPM2 Multiple Myeloma Xenograft. Mice with established OPM2 xenograft tumors were randomized into 2 groups with 8 mice per group and were administered one of the following sets of regimens: (A) Control group was left untreated (filled circles), elotuzumab (0.5 mg/kg, twice weekly IP for 6 doses starting d12, open circles), dexamethasone (5 mg/kg, daily IP for 7 doses starting on d12, open triangles), elotuzumab (0.5 mg/kg, twice weekly IP for 8 doses starting d12) plus dexamethasone combination (filled triangles), pomalidomide (5 mg/kg, daily for 5 days orally starting on d12 and then again for 5 days on d19) plus dexamethasone combination (dashes); or (B) Control group was left untreated (filled circles), elotuzumab (0.5 mg/kg, twice weekly IP for 6 doses starting d12, open circles), pomalidomide (5 mg/kg, daily for 5 days orally starting on d12 and then again for 5 days on d19, open squares), elotuzumab (0.5 mg/kg, twice weekly IP for 8 doses starting d12) plus pomalidomide combination (filled squares), elotuzumab (0.5 mg/kg, twice weekly IP for 8 doses starting d12) plus pomalidomide plus dexamethasone combination (x's). The data are presented as means+/−standard deviation.
as §1, with “FIGS. 5A-H. Study #2 (OPM2-16), Anti Tumor Activity of Elotuzumab, Pomalidomide, and Dexamethasone as Single Agent and Combination Treatment in OPM2 Multiple Myeloma Xenograft tumor model. Mice” for “Mice”, “FIG. 4” for “FIG. 2”
as §2, §3, §4, §5, §6

OPM2 xenograft [3] = assay: OPM2 xenograft studies taken together (summary and conclusion); type: in vivo, mice; details: elotuzumab 0.5 mg/kg, pomalidomide 5 mg/kg, dexamethasone 5 mg/kg
Protocol: The present invention is based on data from preclinical studies conducted in female SCID mice (6-8 weeks old) that were implanted SC (subcutaneous implantation) with the multiple myeloma cell line OPM-2 which were treated with Elotuzumab IP (intraperitoneal administration) alone, treated with pomalidomide alone, treated with dexamethasone alone, or treated in combination with each other. […] All treatments were well tolerated, with no significant changes in body weights or overt signs of clinical toxicity.
Dosing regimen for dexamethasone was QD×7.

[4] = test system: relapsed or refractory multiple myeloma; details: with lenalidomide and low-dose dexamethasone; 10 mg/kg dose; cited from earlier work
human myeloma xenografts = details: intraperitoneally (IP), dose-dependent; cited from earlier work

Compound | Median Days to Target Size (OPM2 xenograft [1]) [days] | LCK (OPM2 xenograft [1]) | CR (complete tumor regressions) (OPM2 xenograft [1]) | PR (partial tumor regressions) (OPM2 xenograft [1]) | TGI (OPM2 xenograft [1]) [%] | Max % Weight Loss (OPM2 xenograft [1]) [%] | Median Days to Target Size (OPM2 xenograft [2]) [days] | LCK (OPM2 xenograft [2]) | CR (complete tumor regressions) (OPM2 xenograft [2]) | PR (partial tumor regressions) (OPM2 xenograft [2]) | TGI (OPM2 xenograft [2]) [%] | efficacy / effect on tumor growth (in words) (OPM2 xenograft [3]) | PFS [4] [month] | response rate [4] [%] | tumor growth (human myeloma xenografts) | Max % Weight Loss (OPM2 xenograft [2]; mouse, in vivo) [%]
Elotuzumab: humanized monoclonal IgG1 antibody directed against CS-1; VL SEQ ID NO:1, VH SEQ ID NO:2 | 35.0 | 0.61 | 0/8 | 0/8 | 70.3 | −2.2 | 24.0 | 0.47 | 0/8 | 0/8 | 57.7 | inhibited tumor growth | 33 | 92 | inhibits tumor growth of human myeloma xenografts | 
Nc1cccc2c1C(=O)N(C1CCC(=O)NC1=O)C2=O (racemic) [Pomalidomide, (RS)-4-amino-2-(2,6-dioxo-piperidin-3-yl)-isoindole-1,3-dione] | 29.8 | 0.26 | 0/8 | 0/8 | 52 | −1.1 | 22.5 | 0.33 | 0/8 | 0/8 | 41.4 | inhibited tumor growth |  |  |  | −1.1
